Experimental data reported in PMC9459403, “New inhibitors of cathepsin V impair tumor cell proliferation and elastin degradation and increase immune cell cytotoxicity” (Computational and Structural Biotechnology Journal, 2022).

Tests used:
[1] = system: cystatin F in U-937 cells; test: Western blot of cystatin F dimer-to-monomer ratio; assay type: cell-based, human; details: U-937 cell lysates, 6 h treatment, 10 and 20 μM, vs control
Protocol: Cells were treated with E-64d or compound 7 (both at 10 µM or 20 µM) for 6 h. After treatment, whole-cell lysates were prepared in RIPA buffer supplemented with cOmplete™ Protease Inhibitor Cocktail (Roche, Basel, Switzerland) and centrifuged at 16 000 × g for 20 min at 4 °C. Total protein concentration was determined using the DC assay (Biorad, Hercules, CA, USA). Proteins were separated by non-reducing SDS-PAGE and transferred to a nitrocellulose membrane using the TransBlot Turbo System (Biorad). After blocking, the membranes were incubated with primary antibodies overnight at 4 °C and with secondary antibodies for 1 h at room temperature. Bands were visualized using Clarity Max Western ECL substrate (Biorad), and protein loading was checked using Stain Free technology (Biorad). Images were acquired using the ChemiDoc ML Imaging System (Biorad), and quantification analysis was performed using Image Lab software (Biorad).
The following primary antibodies were used: rabbit anti-cystatin F (1:375, HPA040442, Sigma), goat anti-cathepsin V (1:200, AF 1080, R&D, USA), and mouse anti-GAPDH (1:3000, 10494-I-AP, Proteintech, USA). […]

TALL-104 cells = test: Cell viability assay (MTS); assay type: cell-based; details: up to 10 μM, 24 h
Protocol: (§1) The effect of compound 7 on the viability of NK-92, TALL-104, and K-562 cells was evaluated using the MTS [3-(4,5-dimethylthiazol-2-yl)-5-(3-carboxymetoxyphenyl)-2-(4-sulfophenyl)–2H-tetrazolium] colorimetric assay (CellTiter 96 Aqueous One Solution Cell Proliferation Assay, Promega, Madison, WI, USA). NK-92, TALL-104, and K-562 cells were seeded at 2.5 × 10^4, 1 × 10^5, and 1 × 10^4 cells/well, respectively, into a 96-well microplate and treated with inhibitors (2.5, 5, or 10 µM) or DMSO (0.1 %) for 24 h. After incubation, 10 µL of the reagent MTS was added to the wells, and the absorbance of formazan was measured at 492 nm on a Tecan Infinite M1000 (Mannedorf, Switzerland). Cell viability (%) was expressed as the ratio between absorbance in the presence of the compounds and in the presence of DMSO. All assays were performed in quadruplicate and repeated at least twice.

NK-92 cells = test: Cell viability assay (MTS); assay type: cell-based; details: up to 10 μM, 24 h
Protocol: as §1

For O=C(NCc1cccc2ccccc12)NCC1CCN(C(=O)Oc2ccccc2)CC1 [Compound 7, Phenyl 4-((3-(naphthalen-1-ylmethyl)ureido)methyl)piperidine-1-carboxylate], the “cystatin F dimer-to-monomer ratio” value [1] was “even further increased”, the “viability of TALL-104 cells” value (TALL-104 cells) was “not significantly reduced” and the “viability of NK-92 cells” value (NK-92 cells) was “not significantly reduced”.
